Data published in PMC11256326, “Discovery of Heparin Mimetic, Potent, and Selective Inhibitors of Human Clotting Factor XIIIa” (ACS Omega, 2024).

Assays:
FXIIIa = target: T1, FXIIIa (Homo sapiens, UniProt P00488); experiment: FXIIIa-mediated fibrin(ogen) polymerization by SDS-PAGE; format: biochemical; details: for effect on FXIIIa-mediated fibrin(ogen) polymerization / γ–γ dimer formation: 5–3000 μM (13), 5–2000 μM (16)
T1 construct: purchased Haematologic Technologies; host or cells: human plasma
T1 sequence (P00488 39-732 limits assumed): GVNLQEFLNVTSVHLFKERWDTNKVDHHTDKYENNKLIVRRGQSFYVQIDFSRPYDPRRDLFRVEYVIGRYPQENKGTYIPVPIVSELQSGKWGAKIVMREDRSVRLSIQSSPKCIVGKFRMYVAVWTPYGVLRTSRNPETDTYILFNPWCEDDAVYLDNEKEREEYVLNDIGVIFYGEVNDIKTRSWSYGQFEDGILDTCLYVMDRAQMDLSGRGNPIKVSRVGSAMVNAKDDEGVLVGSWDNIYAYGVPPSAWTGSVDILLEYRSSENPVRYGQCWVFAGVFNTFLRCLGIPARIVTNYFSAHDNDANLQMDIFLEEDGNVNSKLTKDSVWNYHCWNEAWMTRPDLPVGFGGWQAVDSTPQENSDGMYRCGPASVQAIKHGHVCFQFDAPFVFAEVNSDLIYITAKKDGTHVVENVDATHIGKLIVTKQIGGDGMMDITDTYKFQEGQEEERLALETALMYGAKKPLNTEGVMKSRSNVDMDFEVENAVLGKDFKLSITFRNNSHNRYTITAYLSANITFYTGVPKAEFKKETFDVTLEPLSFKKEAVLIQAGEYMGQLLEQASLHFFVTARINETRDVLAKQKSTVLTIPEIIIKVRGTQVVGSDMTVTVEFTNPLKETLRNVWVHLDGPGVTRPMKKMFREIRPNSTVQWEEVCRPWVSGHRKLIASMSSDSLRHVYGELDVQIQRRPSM
Procedure: The effect of inhibitors 13 and 16 on FXIIIa-mediated fibrin(ogen) polymerization was investigated by sodium dodecyl sulfate-polyacrylamide gel electrophoresis (SDS-PAGE), as reported earlier.[36],[49] A solution containing 13 mg/mL fibrinogen and 2.0 μg/mL FXIIIa in Tris-HCl buffer of pH 7.4 containing 10 mM CaCl2 was either incubated with different concentrations of inhibitors 13 (5, 50, 500, 1000, 2000, and 3000 μM) or 16 (5, 50, 500, 1000, 1500, and 2000 μM) or buffer. The resulting mixture was then clotted in the presence of human α-thrombin (2.5 μg/mL). The clots were incubated for 24 h at room temperature before the addition of denaturing buffer and then incubated overnight at 25 °C. Samples were boiled in a water bath for 10 min before centrifugation at 12 000g at 20 °C for 3 min; the supernatants were examined by SDS-PAGE on homogeneous 10% cross-linked gels and stained with Coomassie Brilliant Blue. The first lane contains the protein markers, whereas the second lane contains the cross-linked fibrin(ogen) formed in the presence of human α-thrombin (Figure 7). […] In both cases, the inhibition appears to achieve 100% efficacy similar to the inhibition assay results.
The impact of inhibitors 13 and 16 on FXIIIa-mediated fibrin polymerization was further explored via gel electrophoresis, as previously described.[36],[49] […] The resulting clots were incubated for 24 h at room temperature before the addition of denaturing buffer containing 25 mM NaH2PO4, 1.9% (w/v) SDS, 5.7 M urea, and 1.9% (w/v) DTT, followed by overnight incubation at room temperature. Subsequently, the samples were boiled in a water bath for 10 min, followed by centrifugation at 12,000g at 20 °C for 3 min; the supernatants were then analyzed by SDS-PAGE on homogeneous 10% cross-linked gels and stained with Coomassie Brilliant Blue.

papain = target: T2, papain (Carica papaya, UniProt P00784); experiment: papain chromogenic substrate assay; format: biochemical
T2 construct: purchased Sigma Aldrich
T2 sequence (P00784 134-345): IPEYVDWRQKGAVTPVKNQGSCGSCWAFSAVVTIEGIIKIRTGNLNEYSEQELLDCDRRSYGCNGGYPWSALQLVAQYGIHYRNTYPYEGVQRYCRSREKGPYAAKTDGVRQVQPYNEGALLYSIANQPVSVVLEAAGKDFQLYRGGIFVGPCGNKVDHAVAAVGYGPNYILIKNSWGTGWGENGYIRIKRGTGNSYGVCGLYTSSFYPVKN
From the text: FXIIIa and TG-2 belong to the same transglutaminase superfamily, and they share similar protein folds with a sequence similarity of 34%. Although we believe that sulfonated heparin mimetics are less likely to distribute to peripheral tissues, we evaluated inhibitor 16′s potential to inhibit TG-2 (we used recombinant TG-2). […] Likewise, we studied the inhibition of papain, a related cysteine protease, by molecule 16.
Direct inhibition of papain, a cysteine protease, by inhibitor 16 was also evaluated using a chromogenic substrate assay on a microplate reader as reported earlier.[36] Briefly, to each well of a 96-well microplate containing 91 μL of 50 mM Tris-HCl buffer, pH 7.4, containing 100 mM NaCl, 2.5 mM CaCl2, 100 mM DTT, 0.1% PEG8000, and 0.02% Tween80 was added 5 μL of inhibitor 16 (0–20 mM) or vehicle, and 3 μL of papain (130 U/mL) at 37 °C. After 5 min incubation, 1 μL of N-α-benzoyl-L-arginine 4-nitroanilide hydrochloride, the chromogenic substrate (17.7 mM) was rapidly added, and the residual enzyme activity was measured from the initial rate of increase in absorbance at 405 nm. Relative residual enzyme activity as a function of the inhibitor concentration was measured and inhibition parameters were calculated using logistic eq 1.

SMILES	efficacy of inhibition of fibrin(ogen) polymerization (FXIIIa)	effect on FXIIIa-mediated fibrin(ogen) polymerization / γ–γ dimer formation (FXIIIa)	selectivity for FXIIIa over papain (papain)	papain inhibition at the highest concentration tested (papain; 500 μM)
Nc1c(S(=O)(=O)O)cc(Nc2ccc(Nc3nc(Cl)nc(Nc4ccccc4S(=O)(=O)O)n3)c(S(=O)(=O)O)c2)c2c1C(=O)c1ccccc1C2=O [compound 13]	~100%	concentration-dependently inhibited		
Nc1c(/N=N/c2ccc(S(=O)(=O)CCOS(=O)(=O)O)cc2)c(S(=O)(=O)O)cc2cc(S(=O)(=O)O)c(/N=N/c3ccc(S(=O)(=O)CCOS(=O)(=O)O)cc3)c(O)c12 [compound 16]	~100%	concentration-dependently inhibited	> 200 fold	did not inhibit
